{"source": "patent US6203822A", "about": "“Gallium-containing compounds for the treatment of infections caused by intracellular pathogens and pathogens causing chronic pulmonary infection” (priority 1996, dated 2001)", "key": {"[1]": {"test_system": "Macrophages (MDMs) infected with M. tuberculosis", "assay": "Monolayer density of macrophages (MDMs) infected with M. tuberculosis and treated with gallium nitrate", "type": "cell-based, human", "description": "Macrophages were infected with M. tuberculosis at a ratio of 1:5 (MDMs:bacteria) and treated with 500 μM or 1 mM gallium nitrate. Cell density was assessed over time. The results of the experiments comparing the monolayer integrity of untreated vs. gallium nitrate treated cultures were as follows: […]"}, "[2]": {"test_system": "M. avium-intracellulare complex (MAI), ATCC #25291", "assay": "Growth inhibition of MAI (ATCC isolate) in human alveolar macrophages", "type": "cell-based", "settings": "500 μM, 24 hr and 48 hr", "description": "M. avium-intracellulare complex (MAI) was obtained from the ATCC (#25291) and from a patient isolate from the State Hygienic laboratory at the University of Iowa Hospital and Clinics. Human alveolar macrophages were obtained from broncholavage of healthy patients and placed in monolayer culture. The bacteria were added to the cells in a bacteria to macrophage ratio of about 1:1. Growth index readings were obtained at 24 hr and 48 hr after gallium nitrate administration (500 μM) as described in Example 3 and used by Cavalieri, et al. (Antimicrob. Agents and Chemo. 39:1542-1545,1995)."}, "[3]": {"test_system": "P. aeruginosa strain PA01", "assay": "Growth inhibition of P. aeruginosa in iron-supplemented succinate medium", "type": "cell-based", "settings": "for A600 (growth): 1 μM ferric chloride, 7 h, control A600=0.297", "description": "In another embodiment of this invention, P. aeruginosa, the principle cause of chronic lung infections in patients with cystic fibrosis, was also determined to be susceptible to gallium-containing compounds. The PA01 strain of P. aeruginosa only grew in an iron-restricted succinate based broth medium (Cox, CD. Infect. Immun. 52:263-270, 1986) that included exogenous Ferric chloride or iron chelated to either of the siderophores pyochelin or pyoverdin at concentrations of 1 μM or greater. The addition of gallium nitrate to the iron supplemented medium inhibited P. aeruginosa growth (see Example 15). Growth was measure by monitoring the culture medium absorbance at 600 nm.\nP. aeruginosa strain PA01 was suspended in succinate-based medium (Cox, C. D., Infect. Immun. 52:262-270, 1986) to an optical density of approximately 0.040 at 600 nm in the absence (negative control) or presence of 1 μM ferric chloride (positive growth control). To some aliquots of both positive and negative control conditions, gallium nitrate was added at varying concentrations. The bacterial suspensions were placed at 37° C. for 7 h and growth was determined by measuring absorbance at 600 nm. […] With the inclusion of ferric chloride the concentration of organisms increased nearly eight fold A600=0.297)."}}}
{"smiles": "O=[N+]([O-])[O-].O=[N+]([O-])[O-].O=[N+]([O-])[O-].[Ga+3]", "note": "[gallium nitrate]", "values": [{"measurement": "Monolayer Integrity", "setting": "[1]; Experiment #2, Day 1, 24 hr postinfection, 500 μM or 1 mM", "result": "No difference between Ga-treated and control"}, {"measurement": "Monolayer Integrity", "setting": "[1]; Experiment #2, Day 3, 4 days postinfection, 500 μM or 1 mM", "result": "No difference between Ga-treated and control"}, {"measurement": "Monolayer Integrity: times the number of cells in Ga-treated cultures", "setting": "[1]; Experiment #2, Day 6, 7 days postinfection, 500 μM or 1 mM", "result": "2-4 times"}, {"measurement": "Monolayer Integrity", "setting": "[1]; Experiment No. 1, Day 1, 24 h postinfection, 500 μM or 1 mM", "result": "No difference"}, {"measurement": "Monolayer Integrity: more cells in Ga-treated cultures", "setting": "[1]; Experiment No. 1, Day 8, 9 days postinfection, 500 μM or 1 mM", "result": "25-50%"}, {"measurement": "Monolayer Integrity: times as many cells in Ga-treated cultures", "setting": "[1]; Experiment No. 1, Day 11, 12 days postinfection, 500 μM or 1 mM", "result": "4-5 times"}, {"measurement": "Monolayer Integrity: times as many cells in Ga-treated cultures", "setting": "[1]; Experiment No. 1, Day 29, 30 days postinfection, 500 μM or 1 mM", "result": "4-5 times"}, {"measurement": "Monolayer Integrity", "setting": "[1]; Experiment No. 1, Day 33, 34 days postinfection, control wells had no cells left", "result": "No difference between monolayers treated"}, {"measurement": "growth inhibition of MAI", "setting": "[2]", "result": "inhibits the growth of MAI"}, {"measurement": "growth inhibition of MAI", "setting": "[2]; listed as Gallium nitrate", "result": "significant inhibition of MAI growth"}, {"measurement": "growth inhibition in words", "setting": "[3]; 1 μM gallium nitrate", "result": "Slight inhibition"}, {"measurement": "A600 (growth)", "setting": "[3]; 1 μM gallium nitrate", "result": 0.270}, {"measurement": "decrease of growth", "setting": "[3]; 10 μM gallium nitrate", "result": "more than 50%"}, {"measurement": "A600 (growth)", "setting": "[3]; 10 μM gallium nitrate", "result": 0.130}, {"measurement": "P. aeruginosa growth inhibition", "setting": "[3]; 100 μM and 10 μM gallium nitrate, ferric chloride supplemented", "result": "Significant inhibition"}, {"measurement": "growth inhibition in words", "setting": "[3]; 100 μM gallium nitrate", "result": "completely inhibited"}, {"measurement": "A600 (growth)", "setting": "[3]; 100 μM gallium nitrate", "result": 0.043}]}
